The values that follow come from publication PMC11674800, “Second-Generation Antipsychotics Induce Metabolic Disruption in Adipose Tissue-Derived Mesenchymal Stem Cells Through an aPKC-Dependent Pathway” (Cells, 2024).

Data set [1] has as its system ADSCs. To be noted: 7 days; 1 to 50 μM.
The subject of data set [2] is ADSCs. Kind of data set: Adipogenic differentiation, lipid droplet staining (HCS LipidTox). In kind it is cell-based, human. To be noted: 5 µM; after three weeks of differentiation. As for the experimental part: ADSCs were plated at a density of 70,000 cells/well in a 12-well plate using DMEM with 10% FBS. When the cells reached about 90% confluence, the culture medium was removed and substituted with WAT-differentiating medium containing DMEM 10% FBS, insulin (1 μM), dexamethasone (DEXA, 1 μM), IBMX (0.5 mM), and rosiglitazone ([…]). After 3 days of exposure to the differentiating medium, the cells were cultured in a maintenance medium containing only insulin (1 μM) and rosiglitazone (1 μM) for 14 days. The medium was changed every 3 days. The differentiation results were evaluated by staining the cells with HCS LipidTOX™ for neutral lipids (Thermo Fisher Scientific, Waltham, MA, USA) after 21 days. The cells were fixed using 4% paraformaldehyde (PFA, Sigma-Aldrich, SaintLouis, MO, USA) for 15 min at room temperature; then, each well was stained using HCS LipidTox and Hoechst 33342 and incubated at room temperature for 30 min. After this incubation, the cells were washed with water. Images were acquired using fluorescence microscopy (FLoid Cell Imaging Station, Life Technology, Carlsbad, CA, USA) or light microscopy (DMi1, Leica, Wetzlar, Germany) and analyzed using ImageJ software (v 1.52a).

In another data set the test system is INSRβ signaling in ADSCs. Put plainly: Insulin signaling Western blot / INSRβ immunoprecipitation. To be noted: 5 μM, 16 h. It counts as cell-based, human. As for the experimental part:
(§1) After treatments, whole-cell lysates were prepared using RIPA lysis buffer supplemented with protease inhibitors (AEBSF, aprotinin, bestatin, E-64, EDTA, leupeptin, Sigma-Aldrich, Saint Louis, MO, USA) and orthovanadate (Sigma-Aldrich, Saint Louis, MO, USA). The proteins in the lysates were collected and quantified using the Pierce BCA protein assay kit (Thermo Fisher Scientific, Waltham, MA, USA). Subsequently, the proteins were denatured by heating at 95 °C for 5 min in the presence of 2% Sodium Dodecyl Sulfate (SDS, Sigma-Aldrich, Saint Louis, MO, USA), 150 mM dithiothreitol (DTT, Sigma-Aldrich, Saint Louis, MO, USA), and 0.01% bromophenol blue (Sigma-Aldrich, Saint Louis, MO, USA). The samples were then analyzed using SDS-PAGE (SDS-Polyacrylamide Gel Electrophoresis) and Western blotting (WB).
Following treatment, the cells were stimulated with insulin at 50 ng/mL for 15 min. For the immunoprecipitation of the insulin receptor beta subunit (INSRβ), cell lysates were prepared using RIPA lysis buffer with protease inhibitors, as described previously. The lysates were then incubated for 1 h with magnetic beads (Dynabeads Protein G, Thermo Fisher Scientific, Waltham, MA, USA) that had been previously bound to anti-INSRβ antibody, following the manufacturer’s instructions. After incubation, the beads were washed three times with RIPA buffer to remove non-specifically bound proteins. The immunoprecipitated proteins bound to the beads were then eluted by boiling the beads at 95 °C for 5 min in the presence of 2% SDS, 150 mM DTT, and 0.01% bromophenol blue. The eluted proteins were analyzed using SDS-PAGE and, subsequently, using WB.

Data set [3] has as its system ADSCs. Put plainly: Vacuolization assay. To be noted: 5 μM, 4 h. It counts as cell-based, human. As for the experimental part:
After 4 h, pictures were acquired using a phase contrast microscope (DMi1, Leica, Wetzlar, Germany).

Another data set has as its system TFEB. Put plainly: TFEB nuclear localization (confocal microscopy). To be noted: 5 μM, 16 h; compared to untreated cells. In kind it is cell-based, human. The protocol: (§2) For INSRβ endocytosis experiments, the cells were stimulated with 50 ng/mL insulin for 15 min. For transferrin endocytosis experiments, the cells were incubated with 25 μg/mL Transferrin Texas Red for 5 min. After treatment, the cells were washed with PBS and fixed with 4% PFA for 10 min at room temperature, followed by an additional PBS wash. The cells were then permeabilized by incubating them with cold HEPES-Triton X-100 buffer for 5 min at 4 °C. After permeabilization, the cells were incubated with primary antibodies for 30 min, followed by incubation with Alexa Fluor 488- or 546-conjugated secondary antibodies (Invitrogen, Waltham, MA, USA) and phalloidin, labeled with either Alexa Fluor 546 or 633 (Invitrogen Waltham, MA, USA) for 30 min. After incubation, coverslips were mounted on glass slides using a mounting medium. Images were acquired using a confocal microscope (Leica TCS SP8, Wetzlar, Germany) and analyzed using ImageJ (v 1.52a) software in order to quantify and analyze the fluorescence signals.

Another data set deals with PKCζ. Kind of data set: PKC activation (Western blot, P-PKCζ T560 immunofluorescence). It counts as cell-based, human. The note with it: 5 μM, 16 h. As for the experimental part: as §1, §2
A further data set concerns 3T3L1 cells. Kind of data set: PA accumulation in cells transfected with DOCK2-Pii. It counts as cell-based, mouse. The note with it: 5 μM, 16 h; compared to untreated controls. The protocol: Transfection was carried out using Lipofectamine 3000 (Thermo Fisher Scientific, Waltham, MA, USA), following the manufacturer’s instructions. The cells were incubated with the plasmid for 24 h to ensure successful transfection and plasmid expression and were used for experiments 48 h post-transfection.

A further data set deals with LC3B. Kind of data set: Autophagy induction (LC3B Western blot, LAMP1/LC3B colocalization). In kind it is cell-based, human. To be noted: 16 h treatment. The protocol: as §1, §2
For orientation: In western blotting, separated proteins are transferred to a membrane and probed.

As for `Cc1cc2c(s1)Nc1ccccc1N=C2N1CCN(C)CC1` [olanzapine], the “effects on cell viability” value with ADSCs [1] was “negligible effects”. In the data set on ADSCs [2], the “quantity and average size of lipid droplets” value is on record as “notably decreased”; the “reduction in lipid accumulation” value was “approximately 30%”. Besides, the “phosphorylated INSRβ serine residues” value in the data set on INSRβ signaling in ADSCs (basal and after insulin stimulation) is reported as “increased levels”. Moreover, in the data set on INSRβ signaling in ADSCs (insulin 50 ng/mL), the “INSRβ tyrosine phosphorylation (P-INSRβ Y1146)” value was “reduction”; the “P-AKT T308, P-AKT S473, and P-ERK T202/Y204” value is on record as “decrease”. In the data set on ADSCs [3], the vacuolization induction entry is on record as “absent”. Further, the “increase in TFEB nuclear localization” value with TFEB is listed as 50%. The “canonical PKCs (cPKCs) and atypical PKCζ activation state” value in the data set on PKCζ (Western blot) is recorded as “activation”. For the same molecule, in the data set on PKCζ (immunofluorescence), the “increase in nuclear P-PKCζ T560” value was 2 fold. Moreover, the PA accumulation entry in the data set on 3T3L1 cells is listed as “significant accumulation”. In the data set with LC3B, the “colocalization of LAMP1 with LC3B” value is reported as “not observed” and the “conversion of LC3B-I to LC3B-II” value is given as “not after olanzapine”.
